Test system: Experimental Autoimmune (or Allergic) Encephalomyelitis (“EAE”)
Experiment: In vivo evaluation: Experimental Autoimmune (or Allergic) Encephalomyelitis (EAE) model, motor impairment
Parameters: species or system rats or guinea pigs
Settings: treatment from Day 8, bid for five days, SC, PO or IP

## Cc1ccc(S(=O)(=O)N2CCC[C@@]2(C)C(=O)N[C@@H](Cc2ccc(OC(=O)N3CCN(C)CC3)cc2)C(=O)OC(C)(C)C)cc1 [Example 47, N-(toluene-4-sulfonyl)-α-methylprolyl-L-4-(4-methylpiperazin-1-carbonyloxy)phenylalanine tert-butyl ester]
  activity in EAE model (delayed the onset of symptoms, e.g., clinical scores no greater than 2 or slowed body weight loss as compared to the control): active

Source: patent US7030114B1, “Compounds which inhibit leukocyte adhesion mediated by VLA-4” (Elan Pharmaceuticals, Inc., priority 1997, dated 2006)
